Laboratory results reported in patent publication US8030336B2, “Nicotinamide-based kinase inhibitors” (YM Biosciences Australia Pty Ltd, priority 2002, dated 2011).

Tests used:
Format in all cases: biochemical
fms = target: T1, fms (Homo sapiens, UniProt P07333); assay: fms kinase assay (ELISA or Alphascreen); details: read-out: fms inhibition of enzyme activity
T1 sequence (P07333 582-910 limits assumed): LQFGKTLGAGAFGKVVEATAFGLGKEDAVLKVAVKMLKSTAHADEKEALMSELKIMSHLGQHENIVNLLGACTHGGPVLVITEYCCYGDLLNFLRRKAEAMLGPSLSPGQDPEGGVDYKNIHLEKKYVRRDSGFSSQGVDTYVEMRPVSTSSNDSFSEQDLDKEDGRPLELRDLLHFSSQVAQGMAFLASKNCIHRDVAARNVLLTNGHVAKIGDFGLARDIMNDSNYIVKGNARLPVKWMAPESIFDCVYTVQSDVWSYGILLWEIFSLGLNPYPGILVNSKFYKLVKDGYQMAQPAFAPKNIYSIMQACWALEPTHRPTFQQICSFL
Experimental: (§1) Kinase assays were performed in a 96 well capture-based ELISA assay or in 384 well Optiplates (Packard) using an Alphascreen Protein Tyrosine Kinase kit. In either case using approximately 1.5 μg of affinity purified PTK domain in the presence of 50 mM HEPES, pH 7.5, 10 mM MgCl2, 150 mM NaCl and 10 μM-1 mM ATP. The biotinylated substrate biotin-EGPWLEEEEEAYGWMDF-NH2 (SEQ ID NO:9) (final concentration 5 μM) was used as substrate. In the ELISA assay tyrosine phosphorylation was quantitated following transfer to an avidin coated ELISA plate using peroxidase-linked anti-phosphotyrosine antibody PY20. In the Alphascreen assay, Alphascreen phosphotyrosine acceptor beads followed by streptavidin donor beads were added under subdued light. The ELISA plates were read on a BMG Fluorostar, the Alphascreen plates were read on a Packard Fusion Alpha. Inhibitors were added to the assays fifteen minutes prior to the addition of ATP. Inhibitors were added in aqueous […] concentrations never exceeding 1%.

hck = hck (Homo sapiens, UniProt P08631); assay: hck kinase assay (ELISA or Alphascreen); details: read-out: hck inhibition of enzyme activity
Experimental: as §1

human JAK3 = target: T2, human JAK3 (Homo sapiens, UniProt P52333); assay: JAK3 kinase assay (ELISA or Alphascreen); details: read-out: Jak3 inhibition of enzyme activity
T2 construct: The kinase domain of human JAK3 was amplified from U937mRNA; His tag (from the pFastBac HTb vector) (N); made in house; host or cells: baculovirus; Sf9 for virus, High Five insect cells for production
Source text: The kinase domain of human JAK3 was amplified from U937mRNA using the polymerase chain reaction with the following primers: […]
JAK3 PCR products were cloned into the pFastBac HTb expression vector (Gibco) via the Xho I and Kpn I sites. The JAK3 plasmid was then transformed into competent DH10Bac cells (Gibco), and the recombinant baculovirus produced prepared for transfection into Sf9 insect cells.
(§2) Baculovirus preparations from each of the JAK family members were infected into five liters of High Five cells (Invitrogen) grown in High Five serum free medium (Invitrogen) to a cell density of approximately 1-2×10^6 cells/ml. Cells are infected with virus at a MOI of 0.8-3.0. Cells were harvested and lysed. JAK kinase domains were purified by affinity chromatography on a Probond (Invitrogen) nickel chelate affinity column.
as §1

human JAK2 = target: T3, human JAK2 (Homo sapiens, UniProt O60674); assay: JAK2 kinase assay (ELISA or Alphascreen); details: read-out: Jak2 inhibition of enzyme activity
T3 construct: The kinase domain of human JAK2 was amplified from U937mRNA; His tag (from the pFastBac HTc vector) (N); made in house; host or cells: baculovirus; Sf9 for virus, High Five insect cells for production
Source text: The kinase domain of human JAK2 was amplified from U937mRNA using the polymerase chain reaction with the following primers: […]
JAK2 PCR products were doped into the pFastBac HTc expression vector (Gibco) via the Sal I and Not I sites. The JAK2 plasmid was than transformed into competent DH10Bac cells (Gibco), and the recombinant baculovirus produced prepared for transfection into Sf9 insect cells.
as §2, §1

Zap70 = target: T4, Zap70 (Homo sapiens, UniProt P43403); assay: Zap70 kinase assay (ELISA or Alphascreen); details: read-out: Zap70 inhibition of enzyme activity
T4 sequence (P43403 338-600 limits assumed): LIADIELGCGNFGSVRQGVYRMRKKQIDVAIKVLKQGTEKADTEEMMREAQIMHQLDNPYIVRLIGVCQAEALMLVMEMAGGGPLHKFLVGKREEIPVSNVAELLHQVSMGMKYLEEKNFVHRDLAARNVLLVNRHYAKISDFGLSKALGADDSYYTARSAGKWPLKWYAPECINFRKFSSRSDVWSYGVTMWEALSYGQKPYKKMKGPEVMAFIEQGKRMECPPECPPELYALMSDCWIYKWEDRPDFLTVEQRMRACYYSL
Experimental: as §1

fes = fes (Homo sapiens, UniProt P07332); assay: fes kinase assay (ELISA or Alphascreen); details: read-out: fes inhibition of enzyme activity
Experimental: as §1

abl = target: T5, abl (Homo sapiens, UniProt P00519); assay: abl kinase assay (ELISA or Alphascreen); details: read-out: abl inhibition of enzyme activity
T5 sequence (P00519 242-493 limits assumed): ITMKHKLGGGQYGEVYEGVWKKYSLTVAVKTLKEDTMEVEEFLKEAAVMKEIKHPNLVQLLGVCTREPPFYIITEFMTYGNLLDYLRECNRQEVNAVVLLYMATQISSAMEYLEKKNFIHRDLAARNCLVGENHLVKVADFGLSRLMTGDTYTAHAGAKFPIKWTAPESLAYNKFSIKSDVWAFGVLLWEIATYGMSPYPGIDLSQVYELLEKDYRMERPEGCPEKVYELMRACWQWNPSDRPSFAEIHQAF
Experimental: as §1

T3 sequence (O60674 849-1124 limits assumed): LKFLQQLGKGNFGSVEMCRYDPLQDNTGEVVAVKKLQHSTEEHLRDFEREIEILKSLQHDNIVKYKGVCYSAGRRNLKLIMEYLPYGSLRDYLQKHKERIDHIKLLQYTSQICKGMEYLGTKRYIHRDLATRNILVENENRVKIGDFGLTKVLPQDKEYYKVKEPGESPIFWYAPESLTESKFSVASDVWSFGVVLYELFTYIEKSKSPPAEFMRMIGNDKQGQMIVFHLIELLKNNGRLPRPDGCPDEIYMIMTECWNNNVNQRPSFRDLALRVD
T2 sequence (P52333 822-1111 limits assumed): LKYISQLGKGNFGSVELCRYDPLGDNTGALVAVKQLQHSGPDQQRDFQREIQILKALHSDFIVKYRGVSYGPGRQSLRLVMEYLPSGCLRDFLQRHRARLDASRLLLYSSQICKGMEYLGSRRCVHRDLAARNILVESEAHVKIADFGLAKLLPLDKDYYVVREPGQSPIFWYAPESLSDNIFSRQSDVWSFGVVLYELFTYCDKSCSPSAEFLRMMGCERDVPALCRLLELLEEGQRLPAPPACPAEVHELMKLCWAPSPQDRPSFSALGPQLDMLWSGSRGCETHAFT
Sequence of fes (P07332 561-822 limits assumed, species assumed): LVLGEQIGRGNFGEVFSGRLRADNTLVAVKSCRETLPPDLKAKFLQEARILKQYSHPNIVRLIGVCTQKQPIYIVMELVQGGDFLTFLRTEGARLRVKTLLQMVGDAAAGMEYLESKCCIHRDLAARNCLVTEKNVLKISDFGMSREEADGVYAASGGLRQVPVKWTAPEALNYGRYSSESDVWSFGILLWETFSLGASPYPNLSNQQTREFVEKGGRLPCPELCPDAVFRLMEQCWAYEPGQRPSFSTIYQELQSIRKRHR
Sequence of hck (P08631 262-515 limits assumed, species assumed): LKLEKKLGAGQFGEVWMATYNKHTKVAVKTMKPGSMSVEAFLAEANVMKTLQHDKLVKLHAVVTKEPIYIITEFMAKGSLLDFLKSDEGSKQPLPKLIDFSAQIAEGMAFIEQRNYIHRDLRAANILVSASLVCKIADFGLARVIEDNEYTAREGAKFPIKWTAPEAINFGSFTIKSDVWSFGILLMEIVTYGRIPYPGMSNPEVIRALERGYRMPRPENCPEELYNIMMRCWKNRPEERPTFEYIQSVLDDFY

SMILES | inhibition at 10 µM (fms) [%] | inhibition at 10 µM (hck) [%] | inhibition at 10 µM (human JAK3) [%] | inhibition at 10 µM (human JAK2) [%] | inhibition at 10 µM (Zap70) [%] | inhibition at 10 µM (fes) [%] | inhibition at 10 µM (abl) [%]
O=C(NCc1ccc(Cl)c(Cl)c1)c1cncc(-c2cccs2)c1 | < 50 | < 50 | < 50 | < 50 | < 50 | < 50 | –
COc1cc(-c2cncc(C(=O)NC(C)C)c2)c(Cl)c(OC)c1OC | < 50 | < 50 | < 50 | < 50 | < 50 | < 50 | –
Cc1ccc(C)c(NC(=O)c2cncc(-c3ccc(F)cc3)c2)c1 | < 50 | < 50 | < 50 | < 50 | < 50 | < 50 | –
O=C(NCc1ccncc1)c1cncc(-c2cccs2)c1 | < 50 | < 50 | < 50 | < 50 | < 50 | < 50 | –
O=C(NCc1ccc(N2CCOCC2)cc1)c1cncc(-c2cccs2)c1 | – | < 50 | – | < 50 | < 50 | < 50 | < 50
CC(C)C(CO)NC(=O)c1cncc(-c2cccs2)c1 (stereo not drawn) | < 50 | < 50 | < 50 | < 50 | < 50 | < 50 | –
COc1cc(CNC(=O)c2cncc(-c3ccc4c(c3)OCO4)c2)cc(OC)c1 | – | < 50 | – | < 50 | < 50 | < 50 | < 50
COc1ccc(CNC(=O)c2cncc(-c3ccc4c(c3)OCO4)c2)cc1 | < 50 | < 50 | < 50 | < 50 | < 50 | < 50 | –
COc1cc(NC(=O)c2cncc(-c3cc(OC)c(OC)c(OC)c3Cl)c2)cc(OC)c1OC | < 50 | < 50 | < 50 | < 50 | < 50 | < 50 | –
COc1cccc(-c2cncc(C(=O)NCc3cccnc3)c2)c1 | < 50 | < 50 | < 50 | < 50 | ≥ 50 | < 50 | –
O=C(NCc1ccncc1)c1cncc(-c2ccc(F)cc2)c1 | < 50 | – | < 50 | < 50 | < 50 | < 50 | < 50
Cc1ccccc1NC(=O)c1cncc(-c2cccnc2)c1 | < 50 | – | < 50 | < 50 | < 50 | < 50 | < 50
COc1cc(-c2cncc(C(=O)Nc3ccc(F)cc3C)c2)c(Cl)c(OC)c1OC | ≥ 50 | ≥ 50 | < 50 | < 50 | < 50 | < 50 | –
COc1ccc(NC(=O)c2cncc(-c3ccc4c(c3)OCO4)c2)c(OC)c1 | < 50 | < 50 | < 50 | < 50 | – | < 50 | –

Next, values leading:

inhibition at 10 µM (fms) [%] | inhibition at 10 µM (hck) [%] | inhibition at 10 µM (human JAK3) [%] | inhibition at 10 µM (human JAK2) [%] | inhibition at 10 µM (Zap70) [%] | inhibition at 10 µM (fes) [%] | inhibition at 10 µM (abl) [%] | SMILES
< 50 | < 50 | < 50 | < 50 | < 50 | < 50 | – | Cc1cc(-c2cncc(C(=O)NC(C)CCc3ccccc3)c2)cc(C)c1O (stereo not drawn)
< 50 | ≥ 50 | < 50 | < 50 | < 50 | < 50 | – | COc1cc(-c2cncc(C(=O)Nc3ccccc3C)c2)ccc1O
< 50 | < 50 | < 50 | < 50 | < 50 | < 50 | – | O=C(NCCc1ccccc1)c1cncc(-c2ccc(O)cc2)c1
≥ 50 | < 50 | < 50 | < 50 | < 50 | < 50 | – | COc1cc(CNC(=O)c2cncc(-c3cc(C)c(O)c(C)c3)c2)cc(OC)c1
< 50 | < 50 | < 50 | < 50 | < 50 | < 50 | – | C[C@@H](NC(=O)c1cncc(-c2ccc3c(c2)OCO3)c1)c1ccccc1
– | < 50 | – | < 50 | < 50 | < 50 | < 50 | C[C@@H](NC(=O)c1cncc(-c2ccc(O)cc2)c1)c1ccccc1
≥ 50 | ≥ 50 | < 50 | < 50 | < 50 | < 50 | – | Cc1ccccc1NC(=O)c1cncc(-c2ccc(O)cc2)c1
< 50 | < 50 | < 50 | < 50 | < 50 | < 50 | – | C[C@H](NC(=O)c1cncc(-c2ccc3c(c2)OCO3)c1)c1ccccc1
≥ 50 | ≥ 50 | < 50 | < 50 | < 50 | – | – | Cc1ccc(F)cc1NC(=O)c1cncc(-c2cc(C)c(O)c(C)c2)c1
< 50 | < 50 | < 50 | < 50 | < 50 | < 50 | – | COc1cccc([C@H](C)NC(=O)c2cncc(-c3ccc(O)c(OC)c3)c2)c1
< 50 | < 50 | < 50 | < 50 | < 50 | < 50 | – | COc1cc(-c2cncc(C(=O)NCCc3ccccc3)c2)c(Cl)c(OC)c1OC
– | < 50 | – | < 50 | < 50 | < 50 | < 50 | Cc1cc(-c2cncc(C(=O)N[C@H](C)c3ccccc3)c2)cc(C)c1O
< 50 | < 50 | < 50 | < 50 | < 50 | < 50 | – | CN(Cc1ccccc1)C(=O)c1cncc(-c2ccc(O)cc2)c1
